Source: US20230407243A1, “GENETIC PLATFORM TO INVESTIGATE THE FUNCTIONS OF BACTERIAL DRUG EFFLUX PUMPS” (priority 2022, published 2023)
Where “and” joins values, the source holds several entries; their conditions need not be identical. Equal entries are not always repeated. Where two headings read alike, the source gives them in different places.

What was measured:
Type in all cases: cell-based, Escherichia coli
[1] = tested on: EKO-35
Description: (§1) Synergy measurement using checkerboard analysis was performed in 96-well microtiter plates using the microdilution broth method, according to CLSI guidelines (Patel J. B., 2015). The cell inocula were prepared using the colony resuspension method. The minimum inhibitory concentrations (MICs) were defined as the lowest concentration that provided no growth, as determined by measurement of the OD600nm using a Synergy H1 microplate reader (BioTek). Susceptibility testing was performed in MHB II with a final volume of 100 μL. PAI3N (Bachem Americas) was solubilized in MHB II. […] Solvent controls were included in each plate.
(§2) The Fractional Inhibitory Concentration Index (FICI) was used to assess the synergy of PAI3N in combination with different antibiotics. The FICI represents the ΣFIC of each drug. The FICI for each drug was calculated using the following formula: FICI=FICA+FICB=(CA/MICA)+(CB/MICB). Where MICA and MICB are the MICs of drugs A (PAI3N/NMP) and B (antibiotic) alone, and CA and CB are the MICs of the drugs in combination. The effects of PAβN or NMP in combination with antibiotics were classified as: synergistic (FICI<0.5), additive (FICI>0.5-1.0), indifferent (FICI>1.0-2.0), and antagonistic (FICI>2.0). Fold increases in resistance provided by efflux pumps were calculated by dividing the MIC values of strains expressing efflux pumps by the MIC value of EKO-35.

[2] = tested on: ΔtolC-Pore
Description: as §1, §2

[3] = tested on: wild-type E. coli K-12; conditions: K-12
Description: as §1, §2

[4] = tested on: EKO-35 acrBD408A; conditions: EKO-35 acrBD408A
Description: as §1, §2

[5] = tested on: ΔtolC; conditions: ΔtolC
Description: as §1, §2

[6] = tested on: EKO-35-Pore acrBD408A (functionally inactive AcrB variant); assay: Checkerboard synergy (FICI), porinated strain; conditions: EKO-35 acrBD408A Pore; with Ciprofloxacin
Description: as §1, §2

[7] = tested on: wild-type K-12-Pore; assay: Checkerboard synergy (FICI), porinated strain; conditions: K-12 Pore
Description: as §1, §2

[8] = tested on: EKO-35-Pore; assay: Checkerboard synergy (FICI), porinated strain; conditions: EKO-35 Pore; with Ethidium Bromide
Description: as §1, §2

[9] = tested on: EKO-35 porinated strain expressing acrD; assay: Checkerboard synergy (FICI), porinated strain; conditions: EKO-35 acrD Pore; NMP alone, one value per checkerboard
Description: as §1, §2

[10] = tested on: EKO-35 porinated strain expressing acrB; assay: Checkerboard synergy (FICI), porinated strain; conditions: EKO-35 acrB Pore
Description: as §1, §2

[11] = tested on: EKO-35-Pore strains producing other efflux pumps; assay: Checkerboard synergy (FICI), porinated strain; conditions: EKO-35 mdtEF Pore; NMP alone, one value per checkerboard
Description: as §1, §2

[12] = tested on: EKO-35-Pore expressing the P. aeruginosa pump mexCD; assay: Checkerboard synergy (FICI), porinated strain; conditions: EKO-35 mexCD Pore; with Erythromycin
Description: as §1, §2

[13] = tested on: EKO-35 porinated strain expressing acrF (AcrEF); assay: Checkerboard synergy (FICI), porinated strain; conditions: EKO-35 acrEF Pore; with Fusidic Acid
Description: as §1, §2

[14] = tested on: EKO-35 strains producing different efflux pumps (EKO-35 araC::X); assay: Checkerboard synergy (FICI) of PAβN or NMP with antibiotics
Description: as §1, §2

## c1ccc2c(CN3CCNCC3)cccc2c1 [NMP, 1-(1-naphthylmethyl)-piperazine]
[1]; EKO-35, NMP alone, one value per checkerboard
  NMP MICa Alone: 512 µg/mL and 1024 µg/mL
[1]; EKO-35, with Ciprofloxacin
  NMP MICa Combined: 512 µg/mL
[1]; EKO-35, with Erythromycin
  NMP MICa Combined: 256 µg/mL
[1]; EKO-35, with Ethidium Bromide
  NMP MICa Combined: 512 µg/mL
[1]; EKO-35, with Fusidic Acid
  NMP MICa Combined: 256 µg/mL
[1]; EKO-35, with Linezolid
  NMP MICa Combined: 16 µg/mL
[1]; EKO-35, with Oxacillin
  NMP MICa Combined: 256 µg/mL
[1]; efflux-deficient strains EKO-35, EKO-35 acrBD408A, ΔtolC
  susceptibility to the efflux pump inhibitor alone, efflux-deficient strains vs wild-type: comparable to the wild-type strain
[2]; ΔtolC Pore, NMP alone, one value per checkerboard
  NMP MICa Alone: 512 µg/mL
[2]; ΔtolC Pore, with Erythromycin
  NMP MICa Combined: 256 µg/mL
[2]; ΔtolC Pore, with Ethidium Bromide
  NMP MICa Combined: 128 µg/mL
[2]; ΔtolC Pore, with Linezolid
  NMP MICa Combined: 256 µg/mL
[2]; δtolC Pore, with Ciprofloxacin
  NMP MICa Combined: 256 µg/mL
[2]; δtolC Pore, with Fusidic Acid
  NMP MICa Combined: 128 µg/mL
[2]; δtolC Pore, with Oxacillin
  NMP MICa Combined: 16 µg/mL
[3]; with Ciprofloxacin
  NMP MICa Combined: 128 µg/mL
[3]; with Erythromycin
  NMP MICa Combined: 128 µg/mL
[3]; with Ethidium Bromide
  NMP MICa Combined: 64 µg/mL
[3]; with Fusidic Acid
  NMP MICa Combined: 256 µg/mL
[3]; with Linezolid
  NMP MICa Combined: 128 µg/mL
[3]; with Oxacillin
  NMP MICa Combined: 64 µg/mL
[4]; with Ciprofloxacin
  NMP MICa Combined: 64 µg/mL
[4]; with Linezolid
  NMP MICa Combined: 8 µg/mL
[4]; with Oxacillin
  NMP MICa Combined: 1024 µg/mL
[5]; with Ciprofloxacin
  NMP MICa Combined: 512 µg/mL
[5]; with Erythromycin
  NMP MICa Combined: 128 µg/mL
[5]; with Ethidium Bromide
  NMP MICa Combined: 32 µg/mL
[5]; with Fusidic Acid
  NMP MICa Combined: 256 µg/mL
[5]; with Linezolid
  NMP MICa Combined: 512 µg/mL
[5]; with Oxacillin
  NMP MICa Combined: 8 µg/mL
[6]
  NMP MICa Combined: 4 µg/mL
[7]; with Linezolid
  NMP MICa Combined: 64 µg/mL
[7]; with Oxacillin
  NMP MICa Combined: 8 µg/mL
[8]
  NMP MICa Combined: 4 µg/mL
[9]
  NMP MICa Alone: 256 µg/mL
[10]; with Ethidium Bromide
  NMP MICa Combined: 32 µg/mL
[10]; with Linezolid
  NMP MICa Combined: 64 µg/mL
[11]
  NMP MICa Alone: 256 µg/mL
[12]
  NMP MICa Combined: 64 µg/mL
[13]
  NMP MICa Combined: 64 µg/mL
[14]; EKO-35 acrB, with Erythromycin
  NMP MICa Combined: 8 µg/mL
[14]; EKO-35 acrB, with Linezolid
  NMP MICa Combined: 64 µg/mL
[14]; EKO-35 acrEF, with Ciprofloxacin
  NMP MICa Combined: 64 µg/mL
[14]; EKO-35 acrEF, with Oxacillin
  NMP MICa Combined: 64 µg/mL
[14]; EKO-35 mdtEF, with Erythromycin
  NMP MICa Combined: 64 µg/mL
[14]; EKO-35 mexCD, with Erythromycin
  NMP MICa Combined: 16 µg/mL
